Our source for the IC50 and GI50 values is ChEMBL document CHEMBL3774317, “Design and synthesis of novel tamoxifen analogues that avoid CYP2D6 metabolism” (Eur J Med Chem, 2016).

Test [1] concerns MCF7. The test can be described thus: Antiproliferative activity against human MCF7 cells after 72 hrs by MTT assay.
The target in another test is T1, Estrogen receptor (Homo sapiens, UniProt P03372).
T1 sequence (P03372 whole entry): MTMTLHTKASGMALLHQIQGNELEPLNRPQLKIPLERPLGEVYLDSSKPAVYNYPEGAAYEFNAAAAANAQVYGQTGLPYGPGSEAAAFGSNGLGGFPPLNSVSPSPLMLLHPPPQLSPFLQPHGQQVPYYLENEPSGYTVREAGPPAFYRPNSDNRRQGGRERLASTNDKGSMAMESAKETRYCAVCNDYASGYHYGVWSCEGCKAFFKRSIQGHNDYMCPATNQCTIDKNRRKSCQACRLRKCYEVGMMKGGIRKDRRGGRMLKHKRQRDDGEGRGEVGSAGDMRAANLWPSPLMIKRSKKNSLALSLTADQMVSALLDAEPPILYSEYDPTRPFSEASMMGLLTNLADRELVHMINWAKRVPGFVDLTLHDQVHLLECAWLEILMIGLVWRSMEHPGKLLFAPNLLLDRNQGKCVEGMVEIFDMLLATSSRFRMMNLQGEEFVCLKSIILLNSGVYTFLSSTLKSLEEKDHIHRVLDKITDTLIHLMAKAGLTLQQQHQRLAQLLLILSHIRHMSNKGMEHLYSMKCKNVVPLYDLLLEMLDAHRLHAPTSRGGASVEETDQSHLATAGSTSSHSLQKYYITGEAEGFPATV

The next test concerns MDA-MB-468. The test can be described thus: Cytotoxicity against human MDA-MB-468 cells assessed as growth inhibition after 48 hrs by SRB assay. It counts as functional. To be noted: MDA-MB-468, 48 h. In general terms: In SRB staining, fixed cells bind dye roughly in proportion to their protein.
The test system of test [2] is MCF7. The test can be described thus: Cytotoxicity against human MCF7 cells assessed as growth inhibition after 48 hrs by SRB assay. To be noted: MCF7, 48 h. It counts as functional.
A short description of test [3]: Cytotoxicity against human MOLT4 cells assessed as growth inhibition after 48 hrs by SRB assay. The format is functional. To be noted: MOLT-4, 48 h.
Test [4] in a line: Cytotoxicity against human HCT15 cells assessed as growth inhibition after 48 hrs by SRB assay. It counts as functional. To be noted: HCT-15, 48 h.
Test [5] can be described thus: Cytotoxicity against human SNB75 cells assessed as growth inhibition after 48 hrs by SRB assay. The format is functional. To be noted: SNB-75, 48 h.
Test [6] is described as follows: Cytotoxicity against human SKOV3 cells assessed as growth inhibition after 48 hrs by SRB assay. To be noted: SK-OV-3, 48 h. The format is functional.
The next test relates to EKVX. The test can be described thus: Cytotoxicity against human EKVX cells assessed as growth inhibition after 48 hrs by SRB assay. The format is functional.
A short description of test [7]: Cytotoxicity against human UO31 cells assessed as growth inhibition after 48 hrs by SRB assay. The format is functional. To be noted: UO-31, 48 h.
Another test concerns MDA-MB-435. Kind of test: Cytotoxicity against human MDA-MB-435 cells assessed as growth inhibition after 48 hrs by SRB assay. The format is functional. To be noted: MDA-MB-435, 48 h.
The target in the next test is Estrogen receptor beta (Homo sapiens, UniProt Q92731).
Estrogen receptor beta, sequence (Q92731 whole entry): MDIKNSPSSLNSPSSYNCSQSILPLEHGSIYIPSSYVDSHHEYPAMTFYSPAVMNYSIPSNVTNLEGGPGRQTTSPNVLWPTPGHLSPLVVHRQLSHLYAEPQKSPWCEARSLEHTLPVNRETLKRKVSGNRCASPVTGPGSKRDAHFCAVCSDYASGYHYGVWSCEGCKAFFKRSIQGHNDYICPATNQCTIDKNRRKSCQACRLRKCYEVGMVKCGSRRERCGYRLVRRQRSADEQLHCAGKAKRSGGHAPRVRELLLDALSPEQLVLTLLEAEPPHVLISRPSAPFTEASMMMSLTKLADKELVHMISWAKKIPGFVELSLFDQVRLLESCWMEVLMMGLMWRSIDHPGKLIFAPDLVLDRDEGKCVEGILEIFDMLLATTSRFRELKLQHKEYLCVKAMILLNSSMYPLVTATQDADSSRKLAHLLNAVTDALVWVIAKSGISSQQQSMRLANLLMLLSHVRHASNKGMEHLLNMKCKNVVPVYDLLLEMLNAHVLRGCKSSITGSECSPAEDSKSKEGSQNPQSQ

Description for Estrogen receptor beta: Displacement of [3H]-E2 from human ER-beta incubated for 16 to 20 hrs by liquid scintillation counting analysis

One may read the IC50 as the concentration that inhibits the measured activity by half. Read a high IC50 as weaker potency. With `CCCCCCCCCC(=O)Oc1ccc(/C(=C(/C)c2ccccc2)c2ccc(OCCN3CCCCC3)cc2)cc1`, the figures for the IC50 in the test with MCF7 [1] (mcf7) and at Estrogen receptor were 1520 nM and 81 nM, respectively.
For orientation: GI50 means the concentration giving 50% growth inhibition. For the compound `CC/C(=C(\c1ccccc1)c1ccc(OCCN(C)C)cc1)c1ccccc1` [TAMOXIFEN], the GI50 in the test on MDA-MB-468 is 2500 nM; in the test with MCF7 [2], 1580 nM; in test [3], 2500 nM; in test [4] it was 3160 nM; in test [5] it was 5010 nM; in [6] it was 10000 nM. Further, the 50% growth inhibitory concentration (GI50) with EKVX was determined as 6300 nM; in test [7] it was 6300 nM; with MDA-MB-435 it was 3160 nM. In the test on MCF7 [1] (Homo sapiens, MCF7, 72 h), this compound displayed an IC50 of 4400 nM.
Turning to `C/C(=C(/c1ccc(O)cc1)c1ccc(OCCN(C)C)cc1)c1ccccc1`, the half-maximal inhibitory concentration (IC50) worked out at 1480 nM in the test on MCF7 [1] (mcf7) and 1.3 nM at Estrogen receptor.
Consider `CCCC(=O)Oc1ccc(/C(=C(/C)c2ccccc2)c2ccc(OCCN3CCCCC3)cc2)cc1`, for which the half-inhibitory concentration (IC50) with MCF7 [1] (mcf7) came to 2420 nM; against Estrogen receptor, 33.3 nM.
As to `CCCC(=O)Oc1ccc(/C(=C(/C)c2ccccc2)c2ccc(OCCN(C)C)cc2)cc1`, the IC50 was 3170 nM in the test with MCF7 [1] (mcf7) and 34.5 nM against Estrogen receptor.
Regarding `CCCCCCCCCC(=O)Oc1ccc(/C(=C(/C)c2ccccc2)c2ccc(OCCN(C)C)cc2)cc1`, the IC50 came to 1120 nM in the test with MCF7 [1] (mcf7) and 31.9 nM at Estrogen receptor.
In the test with MCF7 [1] (Homo sapiens, MCF7, 72 h), `CCC(=C(c1ccc(O)cc1)c1ccc(OCCN(C)C)cc1)c1ccccc1` yielded a 50% inhibitory concentration (IC50) of 2790 nM.
In the case of `CCCC(=O)Oc1ccc(/C(=C(/C)c2ccccc2)c2ccc(OCCN3CCCC3)cc2)cc1`, the values for the IC50 with MCF7 [1] (mcf7) and at Estrogen receptor were 1200 nM and 27.1 nM, respectively.
As to `C/C(=C(/c1ccc(O)cc1)c1ccc(OCCN2CCCCC2)cc1)c1ccccc1`, the 50% inhibitory concentration (IC50) turned out to be 1240 nM in the test with MCF7 [1] (mcf7) and 0.4 nM against Estrogen receptor.
Regarding `CC(=O)Oc1ccc(/C(=C(/C)c2ccccc2)c2ccc(OCCN3CCCCC3)cc2)cc1`, the 50% inhibitory concentration (IC50) with MCF7 [1] (mcf7) is 2460 nM; on Estrogen receptor it was 12.4 nM.
In the case of `CC(=O)Oc1ccc(/C(=C(\C)c2ccccc2)c2ccc(OCCN(C)C)cc2)cc1`, the figures for the half-inhibitory concentration (IC50) in the test on MCF7 [1] (mcf7) and against Estrogen receptor were 2740 nM and 22 nM, respectively.
Consider `CC(=O)Oc1ccc(/C(=C(/C)c2ccccc2)c2ccc(OCCN3CCCC3)cc2)cc1`, for which the IC50 came out at 2600 nM with MCF7 [1] (mcf7), 7.7 nM against Estrogen receptor and 260 nM at Estrogen receptor beta.
